The record followed here is US8846739B2, “TGR5 agonists” (Exelixis Patent Company LLC, priority 2009, dated 2014).

Some results are limits rather than exact numbers.

As usually defined, the EC50 is the concentration at which the effect is half-maximal.

The target of one assay is T1, h-TGR5 (Homo sapiens, UniProt Q8TDU6).
T1 sequence (Q8TDU6 1-330): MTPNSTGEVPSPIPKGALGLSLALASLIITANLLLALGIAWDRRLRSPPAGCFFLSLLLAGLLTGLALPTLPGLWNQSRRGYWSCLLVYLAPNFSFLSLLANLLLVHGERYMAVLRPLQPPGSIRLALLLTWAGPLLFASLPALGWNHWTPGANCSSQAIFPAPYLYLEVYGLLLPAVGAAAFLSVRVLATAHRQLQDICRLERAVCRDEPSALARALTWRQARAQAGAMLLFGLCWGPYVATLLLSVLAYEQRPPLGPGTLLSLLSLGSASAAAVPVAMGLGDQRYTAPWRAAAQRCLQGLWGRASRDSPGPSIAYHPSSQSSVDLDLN
In words: TGR5 cAMP Assay using Cisbio cAMP Dynamic 2 htrf assay kit. Type of assay: cell-based. The following applies: hTGR5CRE-luc HEK 293 cells. The method, then:
Compounds were diluted in DPBS with 5% DMSO (8-point serial dilution by half logs) in a 96-well plate and 1 μL was transferred to a 384-well assay plate in quadruplicate. The d2-cAMP and anti-cAMP Ab-cryptate stock solution were prepared as per the instructions in the Cisbio™ (Bedford, Mass.) kit. Cells (hTGR5CRE-luc HEK 293 and mTGR5CRE-luc HEK 293) were harvested using cell dissociation buffer and resuspended in DPBS. Cells were adjusted to 0.44×10^6 cells/ml followed by addition of IBMX to a final concentration of 0.5 mM. The cells were then mixed with d2-cAMP solution (7.1 mL cells+100 ul d2-cAMP) and 4000 cells (9 μL) were transferred to each well of the 384-well assay plate. Cells without d2-cAMP were added to eight wells as a negative control. The plate was covered and incubated at room temp for 30 min. Then 10 μL of Ab-cryptate solution was added to each well of the assay plate and incubated for 1 hr. The plate was read on an EnVision™ plate reader (Perkin-Elmer, Waltham, Mass.) and the DeltaF value was calculated as per the instructions in the Cisbio™ kit.
(§1) In the following tables, ECso values determined according to the TGR5 cAMP Assay are noted (cAMP); EC50 values determined according to the TGR5/CRE-Luciferiase Assay are noted (CRE-Luc).

The target of the next assay is T2, human TGR5 (h-TGR5) (Homo sapiens, UniProt Q8TDU6).
T2 sequence (Q8TDU6 1-330): T1 sequence (Q8TDU6 1-330)
In words: TGR5/CRE-Luciferase Assay. Type of assay: cell-based. The following applies: HEK 293 hTGR5/CRE-Luc cells, 6 hours incubation, read-out: CRE-Luc Agonist (EC50). The procedure: HEK 293 cells stably expressing human TGR5 (h-TGR5) or mouse TGR5 (m-TGR5) were generated from HEK 293 CRE-Luciferase cells. The day before the assay, HEK 293 hTGR5/CRE-Luc cells were plated in DMEM in a 384 well assay plate at a density of 25 k cells/45 μL per well and grown for 18-20 hours. Compounds were serially diluted in DMEM containing 5% DMSO and 5 µL of compound or media alone was transferred to each well and plates were incubated for 6 hours. Following incubation, 30 μL of lysis/luciferase buffer was added to each well. The luciferase activity was then measured on the EnVision™ plate reader and the dose response data was analyzed using ActivityBase.
as §1

In the case of `COc1cc(C(C)(C)c2cnc(SCc3c(F)cc(S(=O)(=O)N4CC([N+](C)(C)C)C4)cc3Cl)n2-c2ccc(F)cc2)ccc1Cl` [Compound 11n, 1-{[3-chloro-4-({[5-{1-[4-chloro-3-(methyloxy)phenyl]-1-methylethyl}-1-(4-fluorophenyl)-1H-imidazol-2-yl]thio}methyl)-5-fluorophenyl]sulfonyl}-N,N,N-trimethylazetidin-3-aminium], the EC50 at h-TGR5 and on human TGR5 (h-TGR5) was less than 0.1 µM in each case.

Regarding `COc1cc(C(C)(C)c2cnc(SCc3c(F)cc(S(=O)(=O)N4CCC([N+](C)(C)C)CC4)cc3Cl)n2-c2ccc(F)cc2)ccc1F` [Compound 11o, 1-{[3-chloro-5-fluoro-4-({[5-{1-[4-fluoro-3-(methyloxy)phenyl]-1-methylethyl}-1-(4-fluorophenyl)-1H-imidazol-2-yl]thio}methyl)phenyl]sulfonyl}-N,N,N-trimethylpiperidin-4-aminium], the EC50 at h-TGR5 and at human TGR5 (h-TGR5) was less than 0.1 µM each time.

Turning to `COc1cc(C(C)(C)c2cnc(SCc3c(F)cc(S(=O)(=O)N4CCC[C@@H]([N+](C)(C)C)C4)cc3Cl)n2-c2ccc(F)cc2)ccc1F` [Compound 11p, (3R)-1-{[3-chloro-5-fluoro-4-({[5-{1-[4-fluoro-3-(methyloxy)phenyl]-1-methylethyl}-1-(4-fluorophenyl)-1H-imidazol-2-yl]thio}methyl)phenyl]sulfonyl}-N,N,N-trimethylpiperidin-3-aminium], the EC50 at h-TGR5 and on human TGR5 (h-TGR5) was less than 0.1 µM each time.

Regarding `CC[N+](C)(C)C1CCN(S(=O)(=O)c2cc(F)c(CSc3ncc(C(C)(C)c4ccc(F)c(OC)c4)n3-c3ccc(F)cc3)c(Cl)c2)CC1` [Compound 11q, 1-{[3-chloro-5-fluoro-4-({[5-{1-[4-fluoro-3-(methyloxy)phenyl]-1-methylethyl}-1-(4-fluorophenyl)-1H-imidazol-2-yl]thio}methyl)phenyl]sulfonyl}-N-ethyl-N,N-dimethylpiperidin-4-aminium], the EC50 at h-TGR5 and at human TGR5 (h-TGR5) was less than 0.1 µM in each case.

As to `COc1cc(C(C)(C)c2cnc(SCc3c(F)cc(S(=O)(=O)N4CC(C[N+](C)(C)C)C4)cc3Cl)n2-c2ccc(F)cc2)ccc1Cl` [Compound 11r, (1-{[3-chloro-4-({[5-{1-[4-chloro-3-(methyloxy)phenyl]-1-methylethyl}-1-(4-fluorophenyl)-1H-imidazol-2-yl]thio}methyl)-5-fluorophenyl]sulfonyl}azetidin-3-yl)-N,N,N-trimethylmethanaminium], the EC50 at h-TGR5 and at human TGR5 (h-TGR5) was less than 0.1 µM throughout.

As to `COc1cc(C(C)(C)c2cnc(SCc3c(F)cc(S(=O)(=O)NCC4CC[N+](C)(C)CC4)cc3Cl)n2-c2ccc(F)cc2)ccc1F` [Compound 11s, 4-[({[3-chloro-5-fluoro-4-({[5-{1-[4-fluoro-3-(methyloxy)phenyl]-1-methylethyl}-1-(4-fluorophenyl)-1H-imidazol-2-yl]thio}methyl)phenyl]sulfonyl}amino)methyl]-1,1-dimethylpiperidinium], the EC50 at h-TGR5 and on human TGR5 (h-TGR5) was less than 0.1 µM each time.

`COc1cc(C(C)(C)c2cnc(SCc3c(F)cc(S(=O)(=O)Nc4cccc[n+]4C)cc3Cl)n2-c2ccc(F)cc2)ccc1F` [Compound 11t, 2-({[3-chloro-5-fluoro-4-({[5-{1-[4-fluoro-3-(methyloxy)phenyl]-1-methylethyl}-1-(4-fluorophenyl)-1H-imidazol-2-yl]thio}methyl)phenyl]sulfonyl}amino)-1-methylpyridinium]: the EC50 on h-TGR5 and on human TGR5 (h-TGR5) was less than 0.1 µM in each case.

In the case of `COc1cc(C(C)(C)c2cnc(SCc3c(F)cc(S(=O)(=O)N4CCC[C@@H](C[N+](C)(C)C)C4)cc3Cl)n2-c2ccc(F)cc2)ccc1F` [Compound 11u, [(3S)-1-{[3-chloro-5-fluoro-4-({[5-{1-[4-fluoro-3-(methyloxy)phenyl]-1-methylethyl}-1-(4-fluorophenyl)-1H-imidazol-2-yl]thio}methyl)phenyl]sulfonyl}piperidin-3-yl]-N,N,N-trimethylmethanaminium], the EC50 at h-TGR5 and at human TGR5 (h-TGR5) was less than 0.1 µM in each case.

Consider `COc1cc(C(C)(C)c2cnc(SCc3c(F)cc(S(=O)(=O)N4CC[C@@H](C[N+](C)(C)C)C4)cc3Cl)n2-c2ccc(F)cc2)ccc1F` [Compound 11v, [(3S)-1-{[3-chloro-5-fluoro-4-({[5-(1-[4-fluoro-3-(methyloxy)phenyl]-1-methylethyl}-1-(4-fluorophenyl)-1H-imidazol-2-yl]thio}methyl)phenyl]sulfonyl}pyrrolidin-3-yl]-N,N,N-trimethylmethanaminium], for which the EC50 at h-TGR5 and on human TGR5 (h-TGR5) was less than 0.1 µM each time.

For the compound `COc1cc(C(C)(C)c2cnc(SCc3c(F)cc(S(=O)(=O)N4CCC[C@H](C[N+](C)(C)C)C4)cc3Cl)n2-c2ccc(F)cc2)ccc1F` [Compound 11w, [(3R)-1-{[3-chloro-5-fluoro-4-({[5-{1-[4-fluoro-3-(methyloxy)phenyl]-1-methylethyl}-1-(4-fluorophenyl)-1H-imidazol-2-yl]thio}methyl)phenyl]sulfonyl}piperidin-3-yl]-N,N,N-trimethylmethanaminium], the 50% effective concentration (EC50) on h-TGR5 and on human TGR5 (h-TGR5) was less than 0.1 µM each time.

Regarding `COc1cc(C(C)(C)c2cnc(SCc3c(F)cc(S(=O)(=O)N4CCC(C[N+](C)(C)C)(C(=O)O)CC4)cc3F)n2-c2ccc(F)cc2)ccc1Cl` [Compound 11x, (4-carboxy-1-{[4-({[5-{1-[4-chloro-3-(methyloxy)phenyl]-1-methylethyl}-1-(4-fluorophenyl)-1H-imidazol-2-yl]thio}methyl)-3,5-difluorophenyl]sulfonyl}piperidin-4-yl)-N,N,N-trimethylmethanaminium], the EC50 at h-TGR5 and at human TGR5 (h-TGR5) was less than 0.1 µM throughout.

For the compound `COc1cc(C(C)(C)c2cnc(SCc3c(F)cc(S(=O)(=O)N(C)CCC[N+](C)(C)C)cc3F)n2-c2ccc(F)cc2)ccc1Cl` [Compound 12a, 3-(4-((5-(2-(4-chloro-3-methoxyphenyl)propan-2-yl)-1-(4-fluorophenyl)-1H-imidazol-2-ylthio)methyl)-3,5-difluoro-N-methylphenylsulfonamido)-N,N,N-trimethylpropan-1-aminium 2,2,2-trifluoroacetate], the EC50 at h-TGR5 and at human TGR5 (h-TGR5) was less than 0.1 µM throughout.

Take `COc1cc(C(C)(C)c2cnc(SCc3c(F)cc(S(=O)(=O)N(C)CCC[N+](C)(C)C)cc3Cl)n2-c2ccc(F)cc2)ccc1Cl` [Compound 12c, 3-(3-chloro-4-((5-(2-(4-chloro-3-methoxyphenyl)propan-2-yl)-1-(4-fluorophenyl)-1H-imidazol-2-ylthio)methyl)-5-fluoro-N-methylphenylsulfonamido)-N,N,N-trimethylpropan-1-aminium 2,2,2-trifluoroacetate]: the EC50 on h-TGR5 and at human TGR5 (h-TGR5) was less than 0.1 µM throughout.

In the case of `COc1cc(C(C)(C)c2cnc(SCc3c(F)cc(S(=O)(=O)N(C)CCC[N+](C)(C)C)cc3Cl)n2-c2ccc(F)cc2)ccc1F` [Compound 12d, 3-(3-chloro-5-fluoro-4-((5-(2-(4-fluoro-3-methoxyphenyl)propan-2-yl)-1-(4-fluorophenyl)-1H-imidazol-2-ylthio)methyl)-N-methylphenylsulfonamido)-N,N,N-trimethylpropan-1-aminium 2,2,2-trifluoroacetate], the EC50 on h-TGR5 and on human TGR5 (h-TGR5) was less than 0.1 µM throughout.

As to `COc1cc(C(C)(C)c2cnc(COc3c(F)cc(S(=O)(=O)N(C)CCC[N+](C)(C)C)cc3Cl)n2-c2ccc(F)cc2)ccc1Cl` [Compound 12e, 3-(3-Chloro-4-((5-(2-(4-chloro-3-methoxyphenyl)propan-2-yl)-1-(4-fluorophenyl)-1H-imidazol-2-yl)methoxy)-5-fluoro-N-methylphenylsulfonamido)-N,N,N-trimethylpropan-1-aminium 2,2,2-trifluoroacetate], the EC50 on h-TGR5 and on human TGR5 (h-TGR5) was less than 0.1 µM throughout.
